pIC50: −log10 of the molar value. Where “and” joins values, the source holds several entries; their conditions need not be identical. Identical values can stand only once.
Assays:
[1] = target: T1, MAO-B (Homo sapiens, UniProt P27338); assay: continuous spectrophotometric MAO-B inhibition assay; format: biochemical; conditions: for LiPE: LiPE = pIC50 - QPlogPo/w, new analogs and pargyline; for pIC50: dilution series 50 μM to 1 nM, duplicates, read-out: MAO-B inhibition IC50; for MAO-B inhibition %: 10 µM, 2h
T1 construct: purchased Sigma-Aldrich
T1 sequence (P27338 1-520): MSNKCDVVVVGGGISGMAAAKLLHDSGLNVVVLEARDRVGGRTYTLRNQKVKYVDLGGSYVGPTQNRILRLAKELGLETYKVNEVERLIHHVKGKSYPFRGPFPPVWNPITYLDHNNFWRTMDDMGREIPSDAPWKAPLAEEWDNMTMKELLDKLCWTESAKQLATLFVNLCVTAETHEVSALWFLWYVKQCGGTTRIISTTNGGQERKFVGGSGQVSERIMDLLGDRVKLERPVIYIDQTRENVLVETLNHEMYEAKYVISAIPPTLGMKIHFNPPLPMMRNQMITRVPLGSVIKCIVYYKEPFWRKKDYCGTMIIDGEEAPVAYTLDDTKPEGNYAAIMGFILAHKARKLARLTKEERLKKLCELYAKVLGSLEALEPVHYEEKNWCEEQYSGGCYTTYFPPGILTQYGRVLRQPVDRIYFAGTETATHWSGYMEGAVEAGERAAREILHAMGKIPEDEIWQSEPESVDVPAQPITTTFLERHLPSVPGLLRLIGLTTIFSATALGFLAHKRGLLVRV
Experimental: Both monoamine oxidase A (MAO-A) and B (MAO-B) protein and the reagents for the chromogenic solution of vanillic acid (4-hydroxy-3-methoxylbenzoic acid, 97% purity), 4-aminoantipyrine (reagent grade), horseradish peroxidase and the substrate tyramine hydrochloride (minimum 99% purity) as well as the potassium phosphate buffer, which was prepared using potassium phosphate dibasic trihydrate (≥99% ReagentPlus™) and potassium phosphate monobasic (minimum 98% purity, molecular biology tested), were purchased from Sigma-Aldrich (St. Louis, MO, USA) for the spectrophotometric assay.
The protocol for continuous spectrophotometric assay (Holt et al., [1997]) was followed in the activity measurements. The assay was performed in 0.2 M potassium phosphate buffer pH 7.6 on 96-well plates (Nunc™ 96F microwell plate without a lid, Nunc A/S, Roskilde, DK) in 200 μl total volume. The chromogenic solution containing 1 mM vanillic acid, 500 μM 4-aminoantipyrine and 8 U/ml horseradish peroxidase in 0.2 M potassium phosphate buffer pH 7.6 was mixed anew for each measurement. 5 mM tyramine solution was used as the substrate. In order to determine the activity of both MAO-B and MAO-A, concentration series as duplicates were prepared. The protein was combined with the chromogenic solution and incubated 30 min at 37°C. The background signal was measured using multilabel reader (Victor^TM X4, 2030 Multilabel Reader, PerkinElmer, Waltham, MA, USA) at A490 before reaching the total 200 μl volume by adding 20 μl of tyramine to final concentration of 0.5 mM on the plate. As a result, the final concentration of the chromogenic solution on the plate was 250 μM vanillic acid, 125 μM 4-aminoantipyrine and 2 U/ml horseradish peroxide. After adding the substrate, the plates were measured 300 times every 15 s using 1 s exposure time. The device was set to 37°C for the duration of the experiment.
The experiment conditions should produce absorbance change of ~0.35 (Holt et al., [1997]). […] The same wide panel of coumarin derivatives was additionally used to analyze the MAO-A inhibition at 100 μM (Table 1, Supplementary Table S1).
The measured data was then fitted on a curve using non-linear regression with the equation for log[inhibitor] vs. response. The IC50 values were therefore determined based on the curve fit. The fitted curves are shown on –log scale in Supplementary Figures S1, S2.

[2] = target: T2, ERα (Homo sapiens, UniProt P03372); assay: PolarScreen ER Alpha Competitor Assay (fluorescence polarization); format: binding; conditions: for inhibition at 10 µM / ER inhibition %: 10 μM
T2 construct: purchased Life Technologies
T2 sequence (P03372 1-595): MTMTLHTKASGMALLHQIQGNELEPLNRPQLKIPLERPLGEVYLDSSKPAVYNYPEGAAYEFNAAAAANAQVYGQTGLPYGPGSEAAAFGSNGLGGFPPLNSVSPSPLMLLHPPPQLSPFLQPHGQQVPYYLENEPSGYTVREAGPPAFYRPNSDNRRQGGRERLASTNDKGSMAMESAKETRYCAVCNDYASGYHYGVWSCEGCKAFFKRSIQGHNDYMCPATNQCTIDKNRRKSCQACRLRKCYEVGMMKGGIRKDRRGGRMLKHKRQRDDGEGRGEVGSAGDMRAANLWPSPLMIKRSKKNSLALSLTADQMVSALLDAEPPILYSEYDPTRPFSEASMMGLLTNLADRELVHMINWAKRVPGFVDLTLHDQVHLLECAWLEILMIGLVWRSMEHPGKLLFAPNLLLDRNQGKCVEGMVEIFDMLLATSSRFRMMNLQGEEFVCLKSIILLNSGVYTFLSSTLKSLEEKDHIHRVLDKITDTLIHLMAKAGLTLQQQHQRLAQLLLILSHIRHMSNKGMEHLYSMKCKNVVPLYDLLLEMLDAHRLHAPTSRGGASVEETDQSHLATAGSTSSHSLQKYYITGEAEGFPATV
Experimental: The pIC50 values for the derivatives (Table 1, Supplementary Table S1) were measured with green PolarScreen™ ER Alpha Competitor Assay (Life Technologies, CA, The United States of America) kit, following the manufacturer protocol as previously described (Niinivehmas et al., [2016]). The final concentration of the compounds ranged from 0.0007 to 10 000 nM in the dilution series which were performed as duplicates. The molecules were combined with 25 nM ERα and 4.5 nM fluormone in the assay buffer and placed on black low volume 384-well assay plate with NBS surface (Corning, NY, The United States of America). After mixing the assay plate, it was incubated for 2 h in RT. The fluorescence polarization was measured using excitation wave length 485 and emission wave length 535 with bandwidths of 25/20 nm on a 2104 EnVision® Multilabel Plate Reader which had EnVision Workstation version 1.7 (PerkinElmer, MA, The United States of America).

[3] = target: T3, recombinant human HSD1 (Homo sapiens, UniProt P14061); assay: HSD1 inhibition by HPLC with tritium labeled estrone/estradiol; format: biochemical; conditions: 1 μM
T3 construct: made in house; host or cells: Sf9 insect cells
T3 sequence (P14061 1-328): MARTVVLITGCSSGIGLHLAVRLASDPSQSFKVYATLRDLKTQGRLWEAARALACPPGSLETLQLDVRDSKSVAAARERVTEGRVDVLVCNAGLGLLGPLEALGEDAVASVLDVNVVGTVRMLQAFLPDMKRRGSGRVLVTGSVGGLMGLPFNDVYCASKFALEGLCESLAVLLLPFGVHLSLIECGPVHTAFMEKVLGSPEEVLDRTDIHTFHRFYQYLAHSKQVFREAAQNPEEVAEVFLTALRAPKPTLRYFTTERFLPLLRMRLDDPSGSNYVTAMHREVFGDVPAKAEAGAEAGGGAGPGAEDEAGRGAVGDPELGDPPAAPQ

| SMILES | inhibition at 10 µM [1] [%] | LiPE [1] | pIC50 [1] | inhibition at 10 µM [2] [%] | inhibition at 1 µM [3] [%] | ER activity (in words) [2] | MAO-B inhibition % [1] [%] | ER inhibition % [2] [%] | HSD1 inhibition % [3] [%] | MAO-B inhibition (in words) [1] |
| --- | --- | --- | --- | --- | --- | --- | --- | --- | --- | --- |
| Cc1ccc2oc(=O)c(-c3ccc(C(F)(F)F)cc3)cc2c1 [derivative 5, 6-methyl-3-(4-(trifluoromethyl)phenyl)-2H-chromen-2-one] | 105 | 2.11 | 6.46 | 1.08 | 0 |  |  |  |  |  |
| COc1ccc2cc(-c3ccc(O)c(F)c3)c(=O)oc2c1 [derivative 20, 3-(3-fluoro-4-hydroxyphenyl)-7-methoxy-2H-chromen-2-one] | 101 | 3.70 | 6.41 | 86.1 | 46 | prominent |  |  |  |  |
| COc1ccc2oc(=O)c(-c3ccc(O)c(F)c3)cc2c1 [derivative 22, 3-(3-fluoro-4-hydroxyphenyl)-6-methoxy-2H-chromen-2-one] | 94.9 | 3.35 | 6.08 | 55.4 | 54 | prominent |  |  |  |  |
| O=c1oc2ccc(O)cc2cc1-c1cccc(O)c1 [derivative 38] |  |  |  |  |  |  | 27.16 | 18.53 | 49.10 |  |
| COc1ccc(-c2cc3cccc(O)c3oc2=O)cc1 [derivative 33] |  |  |  |  |  |  | 47.64 | 0.00 | 76.70 |  |
| COc1ccc2oc(=O)c(-c3ccc(Oc4ccc(F)cc4)cc3)cc2c1 [derivative 46] |  |  |  |  |  |  | 19.73 | 0.00 | 0.00 |  |
| COc1ccc(-c2cc3ccc(O)cc3oc2=O)cc1 [derivative 12, 7-hydroxy-3-(4-methoxyphenyl)-2H-chromen-2-one] | 85.9 | 3.53 | 6.02 | 91.3 | 3 | prominent |  |  |  |  |
| O=c1oc2ccc(O)cc2cc1-c1ccc(O)cc1 [derivative 48] |  |  |  |  |  | prominent | 15.50 | 98.41 | 83.90 |  |
| O=c1oc2ccc(O)cc2cc1-c1ccc(F)cc1 [derivative 24, 3-(4-fluorophenyl)-6-hydroxy-2H-chromen-2-one] | 89.1 | 3.37 | 5.98 | 0 | 20 |  |  |  |  |  |
| CC(=O)Oc1ccc2cc(-c3ccc(F)cc3)c(=O)oc2c1 [derivative 28] |  |  |  |  |  | prominent | 59.20 | 57.12 | 0.30 |  |
| O=c1oc2cc(O)ccc2cc1-c1ccc(O)cc1 [derivative 30] |  |  |  |  |  | prominent | 52.68 | 58.53 | 48.20 |  |
| COc1cccc(-c2cc3cc(OC)ccc3oc2=O)c1 [derivative 8, 6-methoxy-3-(3-methoxyphenyl)-2H-chromen-2-one] | 112 | 3.53 | ~6.64 and 6.64 | 0 | 0 |  |  |  |  |  |
| O=c1oc2cc(O)ccc2cc1-c1ccccc1 [derivative 41] |  |  |  |  |  | prominent | 23.82 | 101.40 |  | activity is lost |
| COc1ccc2oc(=O)c(-c3ccc(N(C)C)cc3)cc2c1 [derivative 18, 3-(4-(dimethylamino)phenyl)-6-methoxy-2H-chromen-2-one] | 93.9 | 2.72 | 6.21 | 0 | 1 |  |  |  |  |  |
| O=c1oc2ccccc2cc1-c1ccc(O)cc1 [derivative 29] |  |  |  |  |  | prominent | 53.65 | 74.22 | 5.40 |  |
| COc1ccc(-c2cc3ccccc3oc2=O)cc1 [derivative 36] |  |  |  |  |  |  | 41.12 | 0.00 | 3.80 |  |
| Cc1ccc(-c2cc3ccc(O)cc3oc2=O)cc1 [derivative 27] |  |  |  |  |  | prominent | 61.91 | 70.96 | 12.50 |  |
| O=c1oc2cc(O)ccc2cc1-c1ccc(F)cc1 [derivative 39] |  |  |  |  |  | prominent | 26.44 | 100.63 | 0.00 |  |
| COc1ccc2oc(=O)c(-c3cc(F)c(F)cc3F)cc2c1 [derivative 15, 6-methoxy-3-(2,4,5-trifluorophenyl)-2H-chromen-2-one] | 87.2 | 2.80 | 6.53 | 0 | 12 |  |  |  |  |  |
| COc1cccc(-c2cc3ccc(OC)cc3oc2=O)c1 [derivative 25] |  |  |  |  |  |  | 67.49 | 0.00 | 3.50 |  |
| Cc1ccc2oc(=O)c(-c3ccc(F)cc3)cc2c1 [derivative 23, 3-(4-fluorophenyl)-6-methyl-2H-chromen-2-one] | 83.5 | 2.46 | 6.04 | 0 | 12 to 33 |  |  |  | 11 |  |
| COc1cccc(-c2cc3ccccc3oc2=O)c1 [derivative 11, 3-(3-methoxyphenyl)-2H-chromen-2-one] | 90.3 | 3.04 | 6.10 | 0.29 | 4 |  |  |  |  |  |
